In brackets after ≈: the same amount, converted by molar mass. Like-named read-outs stand apart in the source and are kept apart here. Positions of bridges follow the written chain, without caps; N, C: chain ends. Non-standard residues stand in square brackets, D forms with d. Residues, ends and D or L forms follow the SMILES beside them. dPhe(4-CF3) = N[C@H](Cc1ccc(C(F)(F)F)cc1)C(=O)O; dTrp(6-F) = N[C@H](Cc1c[nH]c2cc(F)ccc12)C(=O)O; Lys(N3) = [N-]=[N+]=NCCCC[C@H](N)C(=O)O; R8 = C=CCCCCCC[C@@](C)(N)C(=O)O; Cba = N[C@@H](CC1CCC1)C(=O)O; R5 = C=CCCC[C@@](C)(N)C(=O)O; S5 = C=CCCC[C@](C)(N)C(=O)O; βAla = NCCC(=O)O
Columns and labels:
human Mdm2 1–125 = biological target: T1, human Mdm2 1–125 (Homo sapiens, UniProt Q00987); test: Mdm2 binding by competitive fluorescence anisotropy assay (FP binding)
T1 construct: GST (N); His6 (internal); TEV cleavage site (ENLYFQG) (internal); made in house; host or cells: BL21 (DE3) Rosetta T1R Escherichia coli

[1] = Lactate dehydrogenase (LDH) release assay; type: cell-based
Summary of the method: (§1)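 A p53 β-lactamase reporter HCT116 line, 8000 cells per well, is exposed to test compounds at 0.5% final DMSO and scored for LDH leakage.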

HCT116 cells = test: Lactate dehydrogenase (LDH) release assay; type: cell-based
Summary of the method: as §1

[2] = Solubility assay (kinetic solubility, PBS pH 7); type: physicochemical
Summary of the method: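 Quantitation uses an external standard at 100 µM, prepared from 10 mM stock in acetonitrile:methanol:DMSO (10:80:10). Solubility (µM) = (peak area of sample ÷ peak area of standard) × standard concentration.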

physchem [3] = test: physchem
[4] = Experimental LogD (partition coefficient); conditions: for logD: not stated, Partition Coeff LogD
physchem [5] = test: physchem; remark: listed apart in the source
physchem [6] = test: physchem; remark: listed apart in the source
[7] = FP binding assay KD, Tween-20 <CMC
[8] = 0% FBS 4Hr, read-out: LDH: Cytotoxicity assay EC50
[9] = 10% FBS 16Hr, read-out: LDH: Cytotoxicity assay EC50
[10] = pH 7, aqueous buffer, kinetic from dmso stock, pH 7, PBS, read-out: Solubility
[11] = 0% FBS 4Hr, read-out: LDH: Cytotoxicity assay: EC50
[12] = 4 hours, 0% serum, read-out: LDH Cytotoxicity assay EC50

T1 sequence (Q00987 with tags, fused parts or gaps): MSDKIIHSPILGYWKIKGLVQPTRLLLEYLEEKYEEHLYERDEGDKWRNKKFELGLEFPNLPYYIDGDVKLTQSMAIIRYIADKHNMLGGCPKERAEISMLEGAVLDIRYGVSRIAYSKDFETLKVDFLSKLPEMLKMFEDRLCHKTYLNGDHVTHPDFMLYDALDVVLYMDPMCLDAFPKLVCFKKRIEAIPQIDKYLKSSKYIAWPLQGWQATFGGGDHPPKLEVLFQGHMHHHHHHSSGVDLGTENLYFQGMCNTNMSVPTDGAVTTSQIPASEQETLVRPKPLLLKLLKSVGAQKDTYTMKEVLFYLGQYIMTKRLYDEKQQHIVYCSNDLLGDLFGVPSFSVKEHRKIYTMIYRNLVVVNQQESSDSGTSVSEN

CC(C)C[C@@H](NC(=O)[C@@]1(C)CCCC=CCCC[C@@](C)(NC(=O)[C@@H](C)NC(=O)[C@@H](Cc2ccc(O)cc2)NC(=O)[C@@H](Cc2c[nH]c3cc(F)ccc23)NC(=O)[C@@H](C)NC(=O)[C@H](N)[C@H](C)O)C(=O)N[C@H](Cc2ccc(C(F)(F)F)cc2)C(=O)N[C@H](CCC(=O)O)C(=O)N[C@H](CCC(N)=O)C(=O)N1)C(=O)N[C@H](CO)C(N)=O [MP-795] (H-[dT][dA][dTrp(6-F)][dY][dA][R5][dPhe(4-CF3)][dE][dQ][R5][dL][dS]-NH2; staple 6-10)
Kd (human Mdm2 1–125; [7]): 152 nM | EC50 [1, 8]: > 50700 nM | EC50 [1, 9]: > 50700 nM | LDH: Cytotoxicity assay % Effect (HCT116 cells; 0% FBS 4Hr): 13.17% | LDH: Cytotoxicity assay % Effect (HCT116 cells; 10% FBS 16Hr): 16.65% | solubility kinetic ([2]; pH 7, Solubility): 1 µM (≈ 1.55 µg/mL) | EPSA (physchem [3]): 234 A^2 | logD [4]: 2.32

CC(=O)N[C@@H](C(=O)N[C@H](C)C(=O)N[C@H](Cc1c[nH]c2cc(F)ccc12)C(=O)N[C@H](Cc1ccc(O)cc1)C(=O)N[C@H](C)C(=O)N[C@]1(C)CCCC=CCCC[C@](C)(C(=O)N[C@H](CC(C)C)C(=O)N[C@H](CO)C(=O)N[C@H](C)C(=O)N[C@H](C)C(=O)N[C@H](C)C(N)=O)NC(=O)[C@@H](CCC(N)=O)NC(=O)[C@@H](CCC(=O)O)NC(=O)[C@@H](Cc2ccc(C(F)(F)F)cc2)NC1=O)[C@H](C)O [MP-0230] (Ac-[dT][dA][dTrp(6-F)][dY][dA][R5][dPhe(4-CF3)][dE][dQ][R5][dL][dS][dA][dA][dA]-NH2; staple 6-10)
Kd (human Mdm2 1–125; Tween-20 <CMC, read-out: FP binding assay KD): 3.11 nM | EC50 ([1]; LDH: Cytotoxicity assay EC50): > 50700 nM | solubility kinetic [2, 10]: 140 µM (≈ 253 µg/mL) | EPSA (physchem [3]): 190 A^2

CC(=O)N[C@@H](CCCCN=[N+]=[N-])C(=O)NCCC(=O)N[C@@H](CC(C)C)C(=O)N[C@H](C(=O)N[C@@H](Cc1ccccc1)C(=O)N[C@]1(C)CCCCCCC=CCCC[C@@](C)(C(=O)N2CCC[C@@H]2C(=O)N2CCC[C@@H]2C(=O)N2CCC[C@@H]2C(=O)N2CCC[C@@H]2C(=O)N2CCC[C@@H]2C(=O)N2CCC[C@@H]2C(N)=O)NC(=O)[C@H](CC2CCC2)NC(=O)[C@H](CCC(N)=O)NC(=O)[C@H](C)NC(=O)[C@H](Cc2c[nH]c3ccccc23)NC(=O)[C@H](Cc2ccc(O)cc2)NC(=O)[C@H](CCC(=O)O)NC1=O)[C@@H](C)O [MP-896]
Kd (human Mdm2 1–125; Binding KD): 11 nM | Kd (human Mdm2 1–125; [7]): 10.9 nM | EC50 [1, 11]: > 50700 nM | EC50 ([1]; 10% FBS 16Hr, read-out: LDH: Cytotoxicity assay: EC50): > 50700 nM | LDH: Cytotoxicity assay: % Effect (HCT116 cells; 0% FBS 4Hr): -5.717% | LDH: Cytotoxicity assay: % Effect (HCT116 cells; 10% FBS 16Hr): 1.172% | Solubility [2]: P.B. | Solubility ([2]; pH 7, PBS): Poorly Behaved | Partition Coeff LogD [4]: Poorly Behaved

CC(=O)N[C@@H](C(=O)N[C@H](C)C(=O)N[C@H](Cc1c[nH]c2cc(F)ccc12)C(=O)N[C@H](Cc1ccc(O)cc1)C(=O)N[C@H](C)C(=O)N[C@]1(C)CCCC=CCCC[C@](C)(C(=O)N[C@H](CC(C)C)C(=O)N[C@H](CO)C(=O)N[C@H](C)C(=O)N[C@H](C)C(=O)N[C@H](C)C(=O)N[C@H](C)C(=O)N[C@H](C)C(=O)N[C@H](C)C(N)=O)NC(=O)[C@@H](CCC(N)=O)NC(=O)[C@@H](CCC(=O)O)NC(=O)[C@@H](Cc2ccc(C(F)(F)F)cc2)NC1=O)[C@H](C)O [MP-042] (Ac-[dT][dA][dTrp(6-F)][dY][dA][R5][dPhe(4-CF3)][dE][dQ][R5][dL][dS][dA][dA][dA][dA][dA][dA]-NH2; staple 6-10)
Kd (human Mdm2 1–125; Binding KD): 30 nM | Kd (human Mdm2 1–125; [7]): 3.23 nM | EC50 [1, 8]: > 50700 nM | EC50 [1, 9]: > 50700 nM | EC50 [1, 12]: > 50000 nM | LDH: Cytotoxicity assay % Effect (HCT116 cells; 0% FBS 4Hr): 8.154% | LDH: Cytotoxicity assay % Effect (HCT116 cells; 10% FBS 16Hr): 15.87%

CC(=O)N[C@@H](C(=O)N[C@H](C)C(=O)N[C@H](Cc1c[nH]c2cc(F)ccc12)C(=O)N[C@H](Cc1ccc(O)cc1)C(=O)N[C@H](C)C(=O)N[C@]1(C)CCCC=CCCC[C@](C)(C(=O)N[C@H](CC(C)C)C(=O)N[C@H](CO)C(=O)N[C@H](C)C(=O)N[C@H](C)C(=O)N[C@H](C)C(=O)N[C@H](C)C(=O)N[C@H](C)C(=O)N[C@H](C)C(=O)N[C@H](C)C(=O)N[C@H](C)C(=O)N[C@H](C)C(N)=O)NC(=O)[C@@H](CCC(N)=O)NC(=O)[C@@H](CCC(=O)O)NC(=O)[C@@H](Cc2ccc(C(F)(F)F)cc2)NC1=O)[C@H](C)O [MP-1230] (Ac-[dT][dA][dTrp(6-F)][dY][dA][R5][dPhe(4-CF3)][dE][dQ][R5][dL][dS][dA][dA][dA][dA][dA][dA][dA][dA][dA]-NH2; staple 6-10)
Kd (human Mdm2 1–125; [7]): 21.7 nM | EC50 [1, 8]: > 50700 nM | EC50 [1, 9]: > 50700 nM | LDH: Cytotoxicity assay % Effect (HCT116 cells; 0% FBS 4Hr): 4.322% | LDH: Cytotoxicity assay % Effect (HCT116 cells; 10% FBS 16Hr): -2.735% | solubility kinetic [2, 10]: 16 µM (≈ 35.7 µg/mL) | EPSA (physchem [3]): 190 A^2

CC(=O)N[C@@H](CCCCN=[N+]=[N-])C(=O)NCCC(=O)N[C@@H](CC(N)=O)C(=O)N[C@H](C(=O)N[C@@H](Cc1ccccc1)C(=O)N[C@]1(C)CCCCCCC=CCCC[C@@](C)(C(=O)N[C@@H](CC(N)=O)C(=O)N[C@@H](CC(N)=O)C(=O)N[C@@H](CC(N)=O)C(N)=O)NC(=O)[C@H](CC2CCC2)NC(=O)[C@H](CCC(N)=O)NC(=O)[C@H](CC(N)=O)NC(=O)[C@H](Cc2c[nH]c3ccccc23)NC(=O)[C@H](Cc2ccc(O)cc2)NC(=O)[C@H](CC(N)=O)NC1=O)[C@@H](C)O [MP-359, azide-ATSP-7041 (L1N, E5N, A8N, S12N, A13N, A14N)] (Ac-[Lys(N3)][βAla]NTF[R8]NYWNQ[Cba][S5]NNN-NH2; staple 6-13)
Kd (human Mdm2 1–125; Binding KD): 15 nM | EC50 [1, 11]: > 50600 nM | LDH: Cytotoxicity assay: % Effect (HCT116 cells; 0% FBS 4Hr): -2.842% | solubility kinetic [2, 10]: 53.7 µM (≈ 113 µg/mL) | EPSA (physchem [5]): 238 A^2 | logD [4]: 2.12

CC(=O)N[C@@H](C(=O)N[C@H](C)C(=O)N[C@H](Cc1c[nH]c2cc(F)ccc12)C(=O)N[C@H](Cc1ccc(O)cc1)C(=O)N[C@H](C)C(=O)N[C@]1(C)CCCC=CCCC[C@](C)(C(=O)N[C@H](CC(C)C)C(=O)N[C@H](CO)C(N)=O)NC(=O)[C@@H](CCC(N)=O)NC(=O)[C@@H](CCC(=O)O)NC(=O)[C@@H](Cc2ccc(C(F)(F)F)cc2)NC1=O)[C@H](C)O [MP-797] (Ac-[dT][dA][dTrp(6-F)][dY][dA][R5][dPhe(4-CF3)][dE][dQ][R5][dL][dS]-NH2; staple 6-10)
Kd (human Mdm2 1–125; [7]): 258 nM | EC50 [1, 8]: > 50700 nM | EC50 [1, 9]: > 50700 nM | EC50 [1, 12]: > 50000 nM | LDH: Cytotoxicity assay % Effect (HCT116 cells; 0% FBS 4Hr): 33.6% | LDH: Cytotoxicity assay % Effect (HCT116 cells; 10% FBS 16Hr): 29.91% | EPSA (physchem [3]): 198 A^2

CC(=O)N[C@@H](CC(C)C)C(=O)N[C@H](C(=O)N[C@@H](Cc1ccccc1)C(=O)N[C@]1(C)CCCCCCC=CCCC[C@@](C)(C(=O)N[C@@H](CO)C(=O)N[C@@H](C)C(=O)N[C@@H](C)C(N)=O)NC(=O)[C@@H](CC2CCC2)NC(=O)[C@H](CC(C)C)NC(=O)[C@H](CCC(N)=O)NC(=O)[C@H](Cc2c[nH]c3ccccc23)NC(=O)[C@H](Cc2ccc(O)cc2)NC(=O)[C@H](CCC(=O)O)NC1=O)[C@@H](C)O [MP-009]
Kd (human Mdm2 1–125; read-out: FP binding assay KD): 2220 nM | EC50 ([1]; LDH: Cytotoxicity assay EC50): > 50700 nM | solubility kinetic [2, 10]: 79.3 µM (≈ 142 µg/mL) | EPSA (physchem [6]): 204 A^2 | logD [4]: 2.7

CC(=O)N[C@@H](CCCCN=[N+]=[N-])C(=O)NCCC(=O)N[C@@H](CC(C)C)C(=O)N[C@H](C(=O)N[C@@H](Cc1ccccc1)C(=O)N[C@]1(C)CCCCCCC=CCCC[C@@](C)(C(=O)N[C@@H](CO)C(=O)N[C@@H](C)C(=O)N[C@@H](C)C(N)=O)NC(=O)[C@H](CC2CCC2)NC(=O)[C@H](CCC(N)=O)NC(=O)[C@H](C)NC(=O)[C@H](Cc2c[nH]c3ccccc23)NC(=O)[C@H](Cc2ccc(O)cc2)NC(=O)[C@H](Cc2c[nH]c3ccccc23)NC1=O)[C@@H](C)O [MP-185] (Ac-[Lys(N3)][βAla]LTF[R8]WYWAQ[Cba][S5]SAA-NH2; staple 6-13)
Kd (human Mdm2 1–125; read-out: FP binding assay KD): 98.5 nM | EC50 ([1]; LDH: Cytotoxicity assay EC50): > 50000 nM | solubility kinetic [2, 10]: 2 µM (≈ 4.05 µg/mL) | EPSA (physchem [6]): 226 A^2 | logD [4]: 4
